According to article PMC12644675, “The mass spectrometric intact transition epitope mapping method supports protein engineering of foldon trimer variants” (Scientific Reports, 2025):
Values joined by “and” are separate entries in the source; they are usually repeats but may differ in a detail not shown here. Equal entries are not always repeated. Where two headings read alike, the source gives them in different places.

Legend:
[1] = Travelling wave ion mobility: drift times and CCS of homo-trimer 5+ ions; assay type: physicochemical; details: TWIM, nitrogen; for TWCCSN2 exp. (mean): 5+ trimer ion; for TWCCSN2 exp. (mean) / dt (mean): 50 mM ammonium acetate pH 5.5, c = 0.1 mg/ml, mean of two independent measurements; for dt (mean): centroided 5+ trimer ion signal; for FWHM: drift time peak of 5+ trimer ion, unit assumed
Method: Ion mobility measurements were performed using a Synapt G2-S instrument (Waters Corporation, Wilmslow, UK) equipped with a travelling wave ion mobility (TWIM) cell. Nitrogen was the neutral buffer gas for all TWIM experiments. All mass spectra were acquired in positive ion mode applying a mass window from m/z 400 to m/z 8000. Instrument settings were as follows: capillary voltage: 1.2 kV, sample cone voltage: 13 V, source offset: 12 V, source temperature: 40 °C, trap collision energy: 2.0 V, pusher: 1900 V, puller: 1370 V, reflectron grid 1.451 kV, source gas flow: 0.0 ml/min, cone gas flow: 9 l/h, nano flow gas pressure: 0.2 bar, helium cell gas flow: 140 ml/min, IMS gas flow: 50.0 ml/min, trap collision voltage: 2 V, trap gas flow: 5.0 ml/min, IMS wave velocity 1600 m/s, wave height: 30.0 V. Data acquisition, arrival time determinations, and processing were done with the MassLynx software version 4.1 (Waters MS-Technologies, Wilmslow, UK[31]. TWIM calibration was done with bovine serum albumin, myoglobin, cytochrome c, ubiquitin, and insulin using published CCS values (Table S18)[66],[67] and applying the published algorithms for logarithmic fits[66],[68] as well as for linear fits[69].

foldon homo-trimer = test: ITEM-FIVE: collision-induced dissociation of foldon homo-trimer 5+ ions in the gas phase (nanoESI-MS); assay type: binding, T4 phage; details: for k#m0g (apparent kinetic constant of trimer dissociation) / TambΔS#m0g / ΔG#m0g (pseudo thermodynamic activation free energy of trimer dissociation) / ΔH#m0g (activation enthalpy of trimer dissociation): gas phase, two measurement series averaged; for k#m0g (apparent kinetic constant of trimer dissociation): CID ΔCV 0-50 V, linear extrapolation to ambient temperature (298 K), dimensionless, sprayed from 50 mM ammonium acetate pH 5.5, 0.1 µg/µl; for TambΔS#m0g: Tamb 298 K; for ΔG#m0g (pseudo thermodynamic activation free energy of trimer dissociation) / ΔH#m0g (activation enthalpy of trimer dissociation): extrapolated to ambient temperature
Source text: ITEM-FIVE investigations started with electrospraying foldon-containing solutions and by setting the first mass filter (quadrupole) to selecting only foldon trimer ions for transmission into the instrument’s collision cell.
After mass filtering, this was the only remaining ion signal in the mass spectrum because the energy in the collision cell was too low to initiate complex dissociation. […] At 20 V the trimer ion signals were barely visible (Fig. 2C), leaving mass spectra with dominating ion signals of dimers and monomers. Finally, at 40 V, the only ion signals which remained visible in the mass spectra were those of the monomers (Fig. 2D). Independent measurement series of complex dissociations were recorded twice for each foldon variant (Tables S1–S7). […] Plotting the courses of normalized educt ion intensities as functions of ∆CV provided sigmoidal shaped curves with Boltzmann characteristics for all foldons (Fig. 3).
Approximating the tangent lines at the ∆CV50 values of all the Boltzmann curves (R^2 = 0.999 for all foldons; cf. Table S8) and upon transforming ∆CV values to reaction temperatures (applying formula (5) see Supplement) enabled drawing of Arrhenius plots (Fig. S11, applying formulas (1) and (5)) and Ellingham diagrams (Fig. S12, formulas (3), (4) and (5)). The values were calculated from formulas (2), (5) and (6). […] Likewise, the pseudo thermodynamic activation free energy values, followed in all Ellingham diagrams courses with almost parallel lining up of linear courses of all foldons when plotted against (according to formula (4)).
Mass spectra were acquired on a Synapt G2-S instrument (Waters MS-Technologies, Wilmslow, UK). Instrument calibration was performed with a sodium iodide solution with a concentration of 2 mg/ml, dissolved in isopropanol/water (50:50 v/v).
All mass spectra were acquired in positive ion mode applying a mass window from m/z 400 to m/z 8000. NanoESI measurements were performed with the following instrument settings: capillary voltage: 1.0–1.2 kV, sample cone voltage: 13 V source offset: 12 V, source gas flow: 0.0 ml/min, cone gas flow: 9 l/h, helium cell gas flow: 40 ml/min, IMS gas flow: 20.0 ml/min, trap collision voltage for nanoESI-MS analysis: 0–2 V, source temperature: 40 °C; trap gas flow: 2.0 ml/min, reflectron grid 1.449 kV. Data acquisition and processing were done with the MassLynx software version 4.1 (Waters MS-Technologies, Wilmslow, UK)[31].
ITEM-FIVE experiments started with isolating the quintuply charged foldon trimer ion signal as the respective precursor ion[31]. Then the collision cell voltage difference (ΔCV) in the trap cell was increased stepwise from: 0 V, to 2 V, 5 V, 7 V, 10 V, 12 V, 15 V, 20 V, 30 V, 40 V, and 50 V. At each ΔCV setting mass spectra were accumulated for 2 min and scans were combined using the MassLynx Software version 4.1 (Waters MS Technologies, Wilmslow, UK). Two measurement series were recorded. Mass spectrometry data have been deposited at the ProteomeXchange Consortium’s PRIDE repository[62] with the dataset identifier PXD064233.
From each mass spectrum one list with mass/intensity pair data was copied into a text file and then imported into the OriginPro 2017G software (64 bit) (OriginLab Corporation, Northampton, MA, USA) where it was further processed to eliminate baseline and noise signals. Then, the processed mass list data were converted to a Microsoft Access 2010 database from which data of pre-defined target masses were extracted with a threshold of ± 0.5 Da. Target masses were selected to represent the most characteristic ion signals in the respective mass spectrum: educts were represented by the trimer’s 5 + ion signal and products by the dimer’s 3 + ion signal and the monomer’s 2 + ion signal. […] Ion signal intensities were normalized by setting the sum of all remaining target mass ion signals to 100%. […]

[2] = drift gas nitrogen, in Å2, cited from earlier work
Source text: Supplement 41598_2025_28101_MOESM1_ESM.docx, table 25: Table S18: Drift times, experimentally determined CCS, and literature references of calibrant proteins. | column: CCS from literature ^a)

[3] = Travelling wave ion mobility CCS calibration: drift times and TWCCSN2 of calibrant protein ions; assay type: physicochemical; details: drift gas nitrogen, repeat determinations printed as separate rows; for dt exp.: in ms; for TWCCSN2: in Å2
Source text: Supplement 41598_2025_28101_MOESM1_ESM.docx, table 25: Table S18: Drift times, experimentally determined CCS, and literature references of calibrant proteins. | column: CCS determinations ^a); CCS from literature ^a)

[4] = Boltzmann curve parameter, 5+ trimer ion, mean of two measurement series, Table S8
[5] = collision cell voltage difference at half dissociation of 5+ trimer ion, Boltzmann fit
[6] = calibrant ion z = 5, ion at m/z 2473.12
[7] = calibrant ion z = 5, ion at m/z 2473.14

Substance | TWCCSN2 exp. (mean) [1] | dt (mean) [1] | FWHM [1] | ΔCV50 (foldon homo-trimer; [4]) | k#m0g (apparent kinetic constant of trimer dissociation) (foldon homo-trimer; 5+ trimer ion) | TambΔS#m0g (foldon homo-trimer; 5+ trimer ion) | ΔG#m0g (pseudo thermodynamic activation free energy of trimer dissociation) (foldon homo-trimer; 5+ trimer ion) | ΔH#m0g (activation enthalpy of trimer dissociation) (foldon homo-trimer; 5+ trimer ion) | further results
H-Dip^2IPEAPRDala^10QAYVRKphe^17GEWVLLSTFL-NH2 [foldon 6, T4Ff variant without Gly1, Dip at position 2] | 1177 Å^2 | 11.3 ms | 1.5 ms | 13.42 | 3.47 × 10^8 | 10.1 kcal/mol | 5.88 kcal/mol | 16 kcal/mol | ΔCV50 (foldon homo-trimer; [5]): 13.4 V
H-Gly^1Tyr^2IPEAPRDGly^10QAYVRKAsp^17GEWVLLSTFL-OH [foldon 0, original T4 Fibritin foldon mini-protein of 27 amino acids, purchased, forms homo-trimers, reference compound] | 1160 Å^2 | 10.8 ms | 1.9 ms | 13.51 | 3.61 × 10^8 | 9.56 kcal/mol | 5.71 kcal/mol | 15.3 kcal/mol | ΔCV50 (foldon homo-trimer; [5]): 13.5 V
H-Gly^1Tyr^2IPEAPRDala^10QAYVRKphe^17GEWVLLSTFL-NH2 [foldon 1, T4Ff variant with D-Ala10, D-Phe17 and C-terminal carboxamide] | 1172 Å^2 | 11.1 ms | 1.5 ms | 11.04 | 6.61 × 10^9 | 8.44 kcal/mol | 3.94 kcal/mol | 12.4 kcal/mol | ΔCV50 (foldon homo-trimer; [5]): 11.0 V
H-Gly^1tyr^2IPEAPRDala^10QAYVRKphe^17GEWVLLSTFL-NH2 [foldon 2] | 1169 Å^2 | 11.0 ms | 1.5 ms |  | 3.60 × 10^9 | 9.03 kcal/mol | 4.42 kcal/mol | 13.5 kcal/mol | 
H-Nal^2IPEAPRDala^10QAYVRKphe^17GEWVLLSTFL-NH2 [foldon 5, T4Ff variant without Gly1, Nal at position 2] | 1169 Å^2 | 11.0 ms | 0.8 ms | 12.25 | 1.22 × 10^9 | 9.56 kcal/mol | 5.04 kcal/mol | 14.6 kcal/mol | 
H-Tyr^2IPEAPRDala^10QAYVRKphe^17GEWVLLSTFL-NH2 [foldon 3] | 1164 Å^2 | 10.9 ms | 1.2 ms | 11.63 | 2.64 × 10^9 | 8.99 kcal/mol | 4.57 kcal/mol | 13.6 kcal/mol | 
H-tyr^2IPEAPRDala^10QAYVRKphe^17GEWVLLSTFL-NH2 [foldon 4, T4Ff variant without Gly1, D-Tyr at position 2] | 1164 Å^2 | 10.9 ms | 1.6 ms | 12.26 | 1.17 × 10^9 | 9.27 kcal/mol | 5.07 kcal/mol | 14.3 kcal/mol | 
cytochrome c |  |  |  |  |  |  |  |  | CCS from literature, CCS exp. ([2]; calibrant ion z = 5): 1146; CCS from literature, CCS exp. ([2]; calibrant ion z = 6, two literature values): 1477 and 1490; CCS from literature, CCS exp. ([2]; calibrant ion z = 7): 1590; dt exp. [3, 6]: 12.03; dt exp. [3, 7]: 11.89; TWCCSN2 [3, 6]: 1204; TWCCSN2 [3, 7]: 1199; dt exp. ([3]; calibrant ion z = 8): 10.23 and 10.37; TWCCSN2 ([3]; calibrant ion z = 8): 1827 and 1835
insulin |  |  |  |  |  |  |  |  | dt exp. ([3]; calibrant ion z = 3): 12.3 and 12.44; TWCCSN2 ([3]; calibrant ion z = 3): 729 and 732; dt exp. ([3]; calibrant ion z = 4): 8.43 and 8.57; TWCCSN2 ([3]; calibrant ion z = 4): 865 and 868; dt exp. ([3]; calibrant ion z = 5): 7.19; TWCCSN2 ([3]; calibrant ion z = 5): 1038
serum albumin |  |  |  |  |  |  |  |  | CCS from literature, CCS exp. ([2]; calibrant ion z = 15): 4490; CCS from literature, CCS exp. ([2]; calibrant ion z = 16): 4470; CCS from literature, CCS exp. ([2]; calibrant ion z = 17): 4490; dt exp. ([3]; calibrant ion z = 15): 18.80; TWCCSN2 ([3]; calibrant ion z = 15): 4310
ubiquitin |  |  |  |  |  |  |  |  | CCS from literature, CCS exp. ([2]; calibrant ion z = 4): 949; CCS from literature, CCS exp. ([2]; calibrant ion z = 5): 1011; dt exp. ([3]; calibrant ion z = 4): 11.75; TWCCSN2 ([3]; calibrant ion z = 4): 956
